Source: paper PMC9016712 (ACS Chemical Biology, 2022)
Like-named read-outs stand apart in the source and are kept apart here. [ ]: non-standard residue; d: D form. Dap = NC[C@H](N)C(=O)O

Assays:
MASP-2 [1] = experiment: recombinant catalytic fragment of human MASP-2; conditions: up to 1 h
MASP-1 = conditions: cited from earlier work
MASP-2 [2] = conditions: cited from earlier work
trypsin = conditions: fold more potent than tested SFMI2 variants; cited from earlier work

Substance	cleaved bond (MASP-2 [1])	MASP-1 inhibition (MASP-1)	MASP-2 inhibition (MASP-2 [2])	MASP-2 inhibition (MASP-2 [2]; listed as wild-type SFTI)	potency on trypsin relative to SFMI2 variants (trypsin)
Ac-GY[Dap]SRSYPPVCIPD-NH2	Arg5-Ser6, 1 h	–	–	–	–
HELM PEPTIDE1{[ac].G.Y.C.S.R.S.Y.P.P.V.C.I.P.D.[am]}$PEPTIDE1,PEPTIDE1,4:R3-12:R3$$$V2.0 (SMILES CC[C@H](C)[C@H](NC(=O)[C@@H]1CSSC[C@H](NC(=O)[C@H](Cc2ccc(O)cc2)NC(=O)CNC(C)=O)C(=O)N[C@@H](CO)C(=O)N[C@@H](CCCNC(=N)N)C(=O)N[C@@H](CO)C(=O)N[C@@H](Cc2ccc(O)cc2)C(=O)N2CCC[C@H]2C(=O)N2CCC[C@H]2C(=O)N[C@@H](C(C)C)C(=O)N1)C(=O)N1CCC[C@H]1C(=O)N[C@@H](CC(=O)O)C(N)=O)	Arg5-Ser6, 1 h	–	–	–	–
SFTI: 14-amino acid sunflower trypsin inhibitor, smallest natural canonical trypsin inhibitor, cyclic	–	does not inhibit the MASPs	does not inhibit the MASPs	does not inhibit MASP-2 at all	about 1000 fold
